Assay [1] addresses T1, Beta-2 adrenergic receptor (Mesocricetus auratus, UniProt P04274). The experiment in a line: Agonist activity at adrenergic beta2 receptor in Syrian hamster DDT1 MF2 cells assessed as stimulation of cAMP accumulation by radioimmunoassay in presence of 1 uM DPCPX. It counts as functional, cell-based. Background: Changes in cAMP serve as a functional read-out for many G protein-coupled receptors.

For assay [2], the target named is Beta-2 adrenergic receptor (Mesocricetus auratus) (UniProt P04274). The assay can be described thus: Agonist activity at adrenergic beta2 receptor in Syrian hamster DDT1 MF2 cells assessed as stimulation of cAMP accumulation up to 100 uM by radioimmunoassay in presence of 1 uM DPCPX. Type of assay: functional, cell-based.
Beta-2 adrenergic receptor (Mesocricetus auratus), sequence (P04274 whole entry, looked up): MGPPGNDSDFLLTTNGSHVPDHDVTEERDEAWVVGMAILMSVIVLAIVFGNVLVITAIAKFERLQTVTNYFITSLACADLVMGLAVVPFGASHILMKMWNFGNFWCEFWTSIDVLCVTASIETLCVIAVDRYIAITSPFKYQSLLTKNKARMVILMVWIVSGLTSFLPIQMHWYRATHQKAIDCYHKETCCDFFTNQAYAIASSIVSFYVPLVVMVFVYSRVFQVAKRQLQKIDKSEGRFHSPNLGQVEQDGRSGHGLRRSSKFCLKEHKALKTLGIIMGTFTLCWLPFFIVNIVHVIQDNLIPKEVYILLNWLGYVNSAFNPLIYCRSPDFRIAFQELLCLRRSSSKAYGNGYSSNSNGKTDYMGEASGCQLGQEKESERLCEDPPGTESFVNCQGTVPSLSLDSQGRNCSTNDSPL
A short description of assay [3]: Displacement of [3H]DPCPX from adenosine A1 receptor in Syrian hamster DDT1 MF2 cells. Type of assay: cell-based, Mesocricetus auratus. (In general: Displacement assays read how much labelled ligand stays bound in the presence of the test substance.)
Assay [4] concerns the target T1, Beta-2 adrenergic receptor. The experiment in a line: Displacement of [125I](-)-iodopindolol from adrenergic beta2 receptor in Syrian hamster DDT1 MF2 cells. It counts as cell-based.
In assay [5] the target is Beta-2 adrenergic receptor (Mesocricetus auratus) (UniProt P04274). The experiment in a line: Agonist activity at adrenergic beta2 receptor in Syrian hamster DDT1 MF2 cells assessed as stimulation of cAMP accumulation by radioimmunoassay in presence of 1 uM DPCPX relative to (-)-isoproterenol. Type of assay: functional, cell-based.
The target is the same in assay [6]. The assay can be described thus: Displacement of [125I](-)-iodopindolol from adrenergic beta2 receptor in Syrian hamster DDT1 MF2 cells at 10 uM. It counts as cell-based.

The results in this text go back to ChEMBL document CHEMBL1140105, “Synthesis of bivalent beta2-adrenergic and adenosine A1 receptor ligands” (J Med Chem, 2008).

As a reminder, the EC50 is the concentration needed to bring the measured effect to its halfway point. In general, Ki refers to the equilibrium dissociation constant of an inhibitor or competing ligand from its target. Higher therefore signals lower affinity. As a reminder, the inhibition is the relative decrease from the control value, in per cent. Read a high inhibition as strong suppression.

Structures are written as SMILES. Calls of active or inactive are those of the source. The calls are words filed in the database; no cut-off is given here.

T1 sequence (P04274 whole entry): as the sequence (P04274 whole entry, looked up) above

As to `Nc1cc(C(O)CNCCCCNc2ncnc3c2ncn3[C@@H]2O[C@H](CO)[C@@H](O)[C@H]2O)ccc1O` (stereo not given in full), the concentration for a half-maximal effect (EC50) in assay [1] is 1.09 µM.

As to `Nc1cc(C(O)CNCCNc2ncnc3c2ncn3[C@@H]2O[C@H](CO)[C@@H](O)[C@H]2O)ccc1O` (stereo not given in full), the result in assay [2] was inactive. The inhibitory constant (Ki) was 2.75 µM in assay [3] and more than 10 µM in assay [4]. The Activity in assay [5] is 50%. For the same compound, in assay [6], the inhibition is 20%.

Take `O=CNc1cc(C(O)CNCCNc2ncnc3c2ncn3[C@@H]2O[C@H](CO)[C@@H](O)[C@H]2O)ccc1O` (stereo not given in full): in assay [2], the outcome was inactive. For the same compound, the inhibition constant Ki in assay [3] is 1.98 µM; in assay [4], more than 10 µM. Moreover, the inhibition in assay [6] amounted to 20%.
